Results as given in US9938269B2, “Inhibitor compounds of phosphodiesterase type 10A” (ABBVIE INC., priority 2011, dated 2018).
Structures can show the parent of a compound that is named as a salt.

Tests used:
[1] = Determination of the microsomal half-life, human liver microsomes; settings: human, liver microsomes, pH 7.4
[2] = target: T1, PDE10A (human) (Homo sapiens, UniProt Q9Y233); experiment: Measurement of PDE activity (HTRF cAMP kit), human PDE10A; assay type: biochemical; settings: PDE enzymatic reaction, substrate 20 nM for PDE10, 60 minutes at 29 C
T1 construct: purchased BPS Bioscience
T1 sequence (Q9Y233 whole entry): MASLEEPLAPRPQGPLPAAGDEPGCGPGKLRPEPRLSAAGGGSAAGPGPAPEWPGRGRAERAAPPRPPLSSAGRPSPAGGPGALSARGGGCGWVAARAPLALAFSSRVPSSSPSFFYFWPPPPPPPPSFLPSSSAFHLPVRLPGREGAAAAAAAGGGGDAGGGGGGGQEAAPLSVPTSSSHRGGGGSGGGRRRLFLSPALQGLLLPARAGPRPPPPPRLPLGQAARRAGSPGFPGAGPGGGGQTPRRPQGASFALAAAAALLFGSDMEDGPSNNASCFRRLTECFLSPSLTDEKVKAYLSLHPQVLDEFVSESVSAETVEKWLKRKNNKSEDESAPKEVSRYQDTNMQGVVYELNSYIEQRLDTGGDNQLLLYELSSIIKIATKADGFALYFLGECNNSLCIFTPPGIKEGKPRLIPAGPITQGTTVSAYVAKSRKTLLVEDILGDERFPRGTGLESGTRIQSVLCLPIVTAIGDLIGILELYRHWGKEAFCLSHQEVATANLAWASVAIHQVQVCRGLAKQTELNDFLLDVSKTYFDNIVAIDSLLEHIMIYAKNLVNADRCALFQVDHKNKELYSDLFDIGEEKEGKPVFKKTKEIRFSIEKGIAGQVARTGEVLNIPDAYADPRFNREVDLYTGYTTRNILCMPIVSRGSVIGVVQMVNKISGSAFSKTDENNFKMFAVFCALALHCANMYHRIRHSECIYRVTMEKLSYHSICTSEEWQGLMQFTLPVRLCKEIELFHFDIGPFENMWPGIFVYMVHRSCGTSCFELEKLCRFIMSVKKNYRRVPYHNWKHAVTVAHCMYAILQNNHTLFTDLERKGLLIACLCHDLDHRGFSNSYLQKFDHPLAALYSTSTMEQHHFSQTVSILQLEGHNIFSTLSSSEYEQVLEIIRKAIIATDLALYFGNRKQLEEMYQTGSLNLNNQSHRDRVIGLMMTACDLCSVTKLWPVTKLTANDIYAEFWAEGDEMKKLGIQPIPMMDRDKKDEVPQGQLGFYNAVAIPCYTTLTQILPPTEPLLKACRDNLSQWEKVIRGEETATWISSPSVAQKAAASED
In short: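 HTRF detection of cAMP left after hydrolysis, expressed as percent of uninhibited control to derive IC50. Reaction: serially diluted inhibitor mixed with recombinant enzyme, started with 20 nM cAMP, 60 min at 29 °C in Tris-HCl pH 7.5 buffer containing MgCl2 and BSA.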

[3] = Determination of the microsomal half-life, rat liver microsomes; settings: rat, liver microsomes, pH 7.4

With `O=C1c2c(NC3COC3)ccnc2CN1CCc1nc2ccccc2s1` [Example 376, 6-(2-Benzothiazol-2-yl-ethyl)-4-(oxetan-3-ylamino)-6,7-dihydro-pyrrolo[3,4-b]pyridin-5-one] the microsomal CLint at 0.5 μM [1] was under 100 µL/min/mg, the IC50 [2] was under 100 nM and the microsomal CLint at 0.5 μM [3] was under 100 µL/min/mg.
With `O=C1c2c(N3CCOCC3)ccnc2CN1CCc1nc2ccccc2s1` [Example 377, 6-(2-Benzothiazol-2-yl-ethyl)-4-morpholin-4-yl-6,7-dihydro-pyrrolo[3,4-b]pyridin-5-one] the microsomal CLint at 0.5 μM [1] was under 100 µL/min/mg, the IC50 [2] was under 100 nM and the microsomal CLint at 0.5 μM [3] was under 100 µL/min/mg.
Work on `O=C1c2c(-c3cccnc3)ccc(F)c2CN1CCc1cn2ccccc2n1` [Example 378, 4-Fluoro-2-(2-imidazo[1,2-a]pyridin-2-yl-ethyl)-7-pyridin-3-yl-2,3-dihydro-isoindol-1-one] yielded a microsomal CLint at 0.5 μM [1] of 100 to 220 µL/min/mg, an IC50 [2] of under 100 nM and a microsomal CLint at 0.5 μM [3] of under 100 µL/min/mg.
`O=C1c2c(-c3ccc(F)cc3)ccc(F)c2CN1CCc1cn2ccccc2n1` [Example 379, 4-Fluoro-7-(4-fluoro-phenyl)-2-(2-imidazol[1,2-a]pyridin-2-yl-ethyl)-2,3-dihydro-isoindol-1-one] gave a microsomal CLint at 0.5 μM [1] of 100 to 220 µL/min/mg, an IC50 [2] of 100 to 200 nM and a microsomal CLint at 0.5 μM [3] of over 220 µL/min/mg.
Compound `COc1ccc(-c2ccc(F)c3c2C(=O)N(CCc2cn4ccccc4n2)C3)cc1` [Example 380, 4-Fluoro-2-(2-imidazo[1,2-a]pyridin-2-yl-ethyl)-7-(4-methoxy-phenyl)-2,3-dihydro-isoindol-1-one] has a microsomal CLint at 0.5 μM [1] of 100 to 220 µL/min/mg, an IC50 [2] of 200 to 500 nM and a microsomal CLint at 0.5 μM [3] of over 220 µL/min/mg.
In the case of `O=C1c2c(-c3cncnc3)ccc(F)c2CN1CCc1cn2ccccc2n1` [Example 381, 4-Fluoro-2-(2-imidazo[1,2-a]pyridin-2-yl-ethyl)-7-pyrimidin-5-yl-2,3-dihydro-isoindol-1-one], the microsomal CLint at 0.5 μM [1] is reported as 100 to 220 µL/min/mg, the IC50 [2] is reported as under 100 nM and the microsomal CLint at 0.5 μM [3] is reported as under 100 µL/min/mg.
With `Cn1nccc1-c1ccc(F)c2c1C(=O)N(CCc1cn3ccccc3n1)C2` [Example 382, 4-Fluoro-2-(2-imidazo[1,2-a]pyridin-2-yl-ethyl)-7-(2-methyl-2H-pyrazol-3-yl)-2,3-dihydro-isoindol-1-one] the microsomal CLint at 0.5 μM [1] was under 100 µL/min/mg, the IC50 [2] was under 100 nM and the microsomal CLint at 0.5 μM [3] was under 100 µL/min/mg.
With `O=C1c2c(-c3cn[nH]c3)ccc(F)c2CN1CCc1cn2ccccc2n1` [Example 383, 4-Fluoro-2-(2-imidazo[1,2-a]pyridin-2-yl-ethyl)-7-(1H-pyrazol-4-yl)-2,3-dihydro-isoindol-1-one] the microsomal CLint at 0.5 μM [1] was under 100 µL/min/mg, the IC50 [2] was under 100 nM and the microsomal CLint at 0.5 μM [3] was under 100 µL/min/mg.
`O=C1c2c(cccc2N2CCOCC2)CN1CCc1ccc2sccc2n1` [Example 556, 7-Morpholino-2-(2-(thieno[3,2-b]pyridin-5-yl)ethyl)isoindolin-1-one] showed a microsomal CLint at 0.5 μM [1] of 100 to 220 µL/min/mg, an IC50 [2] of 100 to 200 nM and a microsomal CLint at 0.5 μM [3] of 100 to 220 µL/min/mg.
With `O=C1c2c(cccc2-c2cncnc2)CN1CCc1ccc2sccc2n1` [Example 559, 7-Pyrimidin-5-yl-2-(2-thieno[3,2-b]pyridin-5-ylethyl)isoindolin-1-one] the microsomal CLint at 0.5 μM [1] was over 220 µL/min/mg, the IC50 [2] was under 100 nM and the microsomal CLint at 0.5 μM [3] was 100 to 220 µL/min/mg.
With `O=C1c2c(N3CCC(CF)C3)ccnc2CN1CCc1cn2ccccc2n1` (stereo not drawn) [compound 384, 4-[3-(Fluoromethyl)pyrrolidin-1-yl]-6-(2-imidazo[1,2-a]pyridin-2-ylethyl)-7H-pyrrolo[3,4-b]pyridin-5-one] the microsomal CLint at 0.5 μM [1] was under 100 µL/min/mg, the IC50 [2] was under 100 nM and the microsomal CLint at 0.5 μM [3] was 100 to 220 µL/min/mg.
Compound `O=C1c2c(N3CCC(C(F)F)C3)ccnc2CN1CCc1nc2ccccc2s1` (stereo not drawn) [compound 385, 6-[2-(1,3-Benzothiazol-2-yl)ethyl]-4-[3-(difluoromethyl)pyrrolidin-1-yl]-7H-pyrrolo[3,4-b]pyridin-5-one] has a microsomal CLint at 0.5 μM [1] of 100 to 220 µL/min/mg, an IC50 [2] of under 100 nM and a microsomal CLint at 0.5 μM [3] of 100 to 220 µL/min/mg.
For `O=C1c2c(N3CCC(C(F)F)C3)ccnc2CN1CCc1cn2ccccc2n1` (stereo not drawn) [compound 386, 4-[3-(Difluoromethyl)pyrrolidin-1-yl]-6-(2-imidazo[1,2-a]pyridin-2-ylethyl)-7H-pyrrolo[3,4-b]pyridin-5-one], the microsomal CLint at 0.5 μM [1] was under 100 µL/min/mg, the IC50 [2] was under 100 nM and the microsomal CLint at 0.5 μM [3] was 100 to 220 µL/min/mg.
Work on `O=C1c2c(N3CCC(CF)C3)ccnc2CN1CCc1nc2ccccc2s1` (stereo not drawn) [compound 387, 6-[2-(1,3-Benzothiazol-2-yl)ethyl]-4-[3-(fluoromethyl)pyrrolidin-1-yl]-7H-pyrrolo[3,4-b]pyridin-5-one] yielded a microsomal CLint at 0.5 μM [1] of 100 to 220 µL/min/mg, an IC50 [2] of under 100 nM and a microsomal CLint at 0.5 μM [3] of over 220 µL/min/mg.
`O=C1c2c(N3CCS(=O)(=O)CC3)ccnc2CN1CCc1nc2ccccc2s1` [compound 390, 6-[2-(1,3-Benzothiazol-2-yl)ethyl]-4-(1,1-dioxo-1,4-thiazinan-4-yl)-7H-pyrrolo[3,4-b]pyridin-5-one trifluoroacetate] gave a microsomal CLint at 0.5 μM [1] of under 100 µL/min/mg, an IC50 [2] of under 100 nM and a microsomal CLint at 0.5 μM [3] of 100 to 220 µL/min/mg.
In the case of `Cc1ccc2ccc(CCN3Cc4nccc(-c5ccncc5)c4C3=O)nc2c1` [compound 394, 6-[2-(7-Methyl-2-quinolyl)ethyl]-4-(4-pyridyl)-7H-pyrrolo[3,4-b]pyridin-5-one trifluoroacetate], the microsomal CLint at 0.5 μM [1] is reported as under 100 µL/min/mg, the IC50 [2] is reported as under 100 nM and the microsomal CLint at 0.5 μM [3] is reported as over 220 µL/min/mg.
For `COc1ccc(-c2ccncc2)c2c1C(=O)N(CCc1nc3ccccc3s1)C2` [compound 396, 2-[2-(1,3-Benzothiazol-2-yl)ethyl]-7-methoxy-4-(4-pyridyl)isoindolin-1-one], the microsomal CLint at 0.5 μM [1] was under 100 µL/min/mg, the IC50 [2] was under 100 nM and the microsomal CLint at 0.5 μM [3] was 100 to 220 µL/min/mg.
For `CC(C)c1ccc(CCN2Cc3nccc(-c4ccncc4)c3C2=O)nc1` [compound 398, 6-[2-(5-Isopropyl-2-pyridyl)ethyl]-4-(4-pyridyl)-7H-pyrrolo[3,4-b]pyridin-5-one], the microsomal CLint at 0.5 μM [1] was 100 to 220 µL/min/mg, the IC50 [2] was under 100 nM and the microsomal CLint at 0.5 μM [3] was over 220 µL/min/mg.
`COc1ccc(-c2ccnn2C)c2c1C(=O)N(CCc1nc3ccccc3s1)C2` [compound 399, 2-[2-(1,3-Benzothiazol-2-yl)ethyl]-7-methoxy-4-(2-methylpyrazol-3-yl)isoindolin-1-one] showed a microsomal CLint at 0.5 μM [1] of under 100 µL/min/mg, an IC50 [2] of under 100 nM and a microsomal CLint at 0.5 μM [3] of 100 to 220 µL/min/mg.
Work on `COc1ccc(-c2cc[nH]n2)c2c1C(=O)N(CCc1nc3ccccc3s1)C2` [compound 400, 2-[2-(1,3-Benzothiazol-2-yl)ethyl]-7-methoxy-4-(1H-pyrazol-3-yl)isoindolin-1-one] yielded a microsomal CLint at 0.5 μM [1] of under 100 µL/min/mg, an IC50 [2] of under 100 nM and a microsomal CLint at 0.5 μM [3] of over 220 µL/min/mg.
For `CC(C)c1ccc(CCN2Cc3nccc(N4CCOCC4)c3C2=O)nc1` [compound 401, 6-[2-(5-Isopropyl-2-pyridyl)ethyl]-4-morpholino-7H-pyrrolo[3,4-b]pyridin-5-one], the microsomal CLint at 0.5 μM [1] was under 100 µL/min/mg, the IC50 [2] was under 100 nM and the microsomal CLint at 0.5 μM [3] was 100 to 220 µL/min/mg.
`O=C1c2c(-c3ccncc3)ccnc2CN1CCc1nc2ccc(F)cc2s1` [compound 402, 6-[2-(6-Fluoro-1,3-benzothiazol-2-yl)ethyl]-4-(4-pyridyl)-7H-pyrrolo[3,4-b]pyridin-5-one] gave a microsomal CLint at 0.5 μM [1] of 100 to 220 µL/min/mg, an IC50 [2] of under 100 nM and a microsomal CLint at 0.5 μM [3] of 100 to 220 µL/min/mg.
For `O=C1c2c(-c3ccncc3)ccnc2CN1CCc1nc2ccc(Cl)cc2s1` [compound 403, 6-[2-(6-Chloro-1,3-benzothiazol-2-yl)ethyl]-4-(4-pyridyl)-7H-pyrrolo[3,4-b]pyridin-5-one], the microsomal CLint at 0.5 μM [1] was under 100 µL/min/mg, the IC50 [2] was under 100 nM and the microsomal CLint at 0.5 μM [3] was 100 to 220 µL/min/mg.
`O=C1c2c(N3CCOCC3)ccnc2CN1CCc1nc2ccc(F)cc2s1` [compound 405, 6-[2-(6-Fluoro-1,3-benzothiazol-2-yl)ethyl]-4-morpholino-7H-pyrrolo[3,4-b]pyridin-5-one] showed a microsomal CLint at 0.5 μM [1] of over 220 µL/min/mg, an IC50 [2] of under 100 nM and a microsomal CLint at 0.5 μM [3] of 100 to 220 µL/min/mg.
Work on `Cc1cccnc1CCN1Cc2nccc(-c3ccncc3)c2C1=O` [compound 409, 6-[2-(3-Methyl-2-pyridyl)ethyl]-4-(4-pyridyl)-7H-pyrrolo[3,4-b]pyridin-5-one] yielded a microsomal CLint at 0.5 μM [1] of under 100 µL/min/mg, an IC50 [2] of 200 to 500 nM and a microsomal CLint at 0.5 μM [3] of under 100 µL/min/mg.
Work on `COc1ccc(NC2COC2)c2c1CN(CCc1nc3ccccc3n1C)C2=O` [compound 411, 4-Methoxy-2-[2-(1-methyl-1H-benzoimidazol-2-yl)-ethyl]-7-(oxetan-3-ylamino)-2,3-dihydro-isoindol-1-one] yielded a microsomal CLint at 0.5 μM [1] of over 220 µL/min/mg, an IC50 [2] of under 100 nM and a microsomal CLint at 0.5 μM [3] of 100 to 220 µL/min/mg.
With `O=C1c2c(-c3cc[nH]n3)ccnc2CN1CCc1cn2ccccc2n1` [compound 413, 6-(2-Imidazo[1,2-a]pyridin-2-yl-ethyl)-4-(1H-pyrazol-3-yl)-6,7-dihydro-pyrrolo[3,4-b]pyridin-5-one] the microsomal CLint at 0.5 μM [1] was under 100 µL/min/mg, the IC50 [2] was under 100 nM and the microsomal CLint at 0.5 μM [3] was under 100 µL/min/mg.
`O=C1c2c(-c3ccoc3)ccnc2CN1CCc1cn2ccccc2n1` [compound 414, 4-Furan-3-yl-6-(2-imidazo[1,2-a]pyridin-2-yl-ethyl)-6,7-dihydro-pyrrolo[3,4-b]pyridin-5-one] gave a microsomal CLint at 0.5 μM [1] of under 100 µL/min/mg, an IC50 [2] of under 100 nM and a microsomal CLint at 0.5 μM [3] of under 100 µL/min/mg.
For `Cc1ccc2c(c1)nc(CCN1Cc3nccc(N4CCOCC4)c3C1=O)n2C` [compound 415, 6-[2-(1,5-Dimethyl-1H-benzoimidazol-2-yl)-ethyl]-4-morpholin-4-yl-6,7-dihydro-pyrrolo[3,4-b]pyridin-5-one], the microsomal CLint at 0.5 μM [1] was under 100 µL/min/mg, the IC50 [2] was under 100 nM and the microsomal CLint at 0.5 μM [3] was under 100 µL/min/mg.
For `Cc1ccc2c(c1)nc(CCN1Cc3nccc(NC4COC4)c3C1=O)n2C` [compound 416, 6-[2-(1,5-Dimethyl-1H-benzoimidazol-2-yl)-ethyl]-4-(oxetan-3-ylamino)-6,7-dihydro-pyrrolo[3,4-b]pyridin-5-one], the microsomal CLint at 0.5 μM [1] was under 100 µL/min/mg, the IC50 [2] was under 100 nM and the microsomal CLint at 0.5 μM [3] was under 100 µL/min/mg.
